Experimental findings from patent publication US20240246942A1, “KINASE INHIBITORS FOR THE TREATMENT OF NEURODEGENERATIVE DISEASES” (priority 2020, published 2024) are described below.

Test in all cases: biochemical
For test [1], the target named is T1, panel of 374 wild-type kinases (Homo sapiens, UniProt Q06187).
T1 construct: purchased Reaction Biology Corporation
Conditions: read-out: % Enzyme Activity (relative to DMSO controls), BTK.

Test [2] concerns the target T2, panel of 374 wild-type kinases (Homo sapiens, UniProt P43403).
T2 construct: purchased Reaction Biology Corporation
T2 sequence (P43403 1-619): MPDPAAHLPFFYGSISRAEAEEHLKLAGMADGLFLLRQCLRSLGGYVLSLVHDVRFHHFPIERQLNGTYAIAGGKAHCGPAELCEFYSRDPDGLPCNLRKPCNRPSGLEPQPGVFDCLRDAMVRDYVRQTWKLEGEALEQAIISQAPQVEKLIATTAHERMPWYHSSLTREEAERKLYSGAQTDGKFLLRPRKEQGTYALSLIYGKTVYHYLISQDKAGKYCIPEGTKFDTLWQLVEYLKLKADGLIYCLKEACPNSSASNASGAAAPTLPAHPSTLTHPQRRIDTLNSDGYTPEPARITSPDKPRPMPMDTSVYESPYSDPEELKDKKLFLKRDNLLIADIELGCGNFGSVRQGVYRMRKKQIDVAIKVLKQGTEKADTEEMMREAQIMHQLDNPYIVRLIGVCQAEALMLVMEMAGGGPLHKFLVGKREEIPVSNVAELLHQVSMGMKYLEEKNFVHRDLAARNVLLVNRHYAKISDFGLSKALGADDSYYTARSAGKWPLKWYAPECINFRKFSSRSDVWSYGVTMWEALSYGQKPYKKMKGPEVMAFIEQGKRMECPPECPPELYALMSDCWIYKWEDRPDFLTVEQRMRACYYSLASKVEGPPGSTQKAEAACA
Conditions: read-out: % Enzyme Activity (relative to DMSO controls), kinase ZAP70.

For test [3], the target named is T3, panel of 374 wild-type kinases (Homo sapiens, UniProt Q8IWQ3).
T3 construct: purchased Reaction Biology Corporation
T3 sequence (Q8IWQ3 1-736): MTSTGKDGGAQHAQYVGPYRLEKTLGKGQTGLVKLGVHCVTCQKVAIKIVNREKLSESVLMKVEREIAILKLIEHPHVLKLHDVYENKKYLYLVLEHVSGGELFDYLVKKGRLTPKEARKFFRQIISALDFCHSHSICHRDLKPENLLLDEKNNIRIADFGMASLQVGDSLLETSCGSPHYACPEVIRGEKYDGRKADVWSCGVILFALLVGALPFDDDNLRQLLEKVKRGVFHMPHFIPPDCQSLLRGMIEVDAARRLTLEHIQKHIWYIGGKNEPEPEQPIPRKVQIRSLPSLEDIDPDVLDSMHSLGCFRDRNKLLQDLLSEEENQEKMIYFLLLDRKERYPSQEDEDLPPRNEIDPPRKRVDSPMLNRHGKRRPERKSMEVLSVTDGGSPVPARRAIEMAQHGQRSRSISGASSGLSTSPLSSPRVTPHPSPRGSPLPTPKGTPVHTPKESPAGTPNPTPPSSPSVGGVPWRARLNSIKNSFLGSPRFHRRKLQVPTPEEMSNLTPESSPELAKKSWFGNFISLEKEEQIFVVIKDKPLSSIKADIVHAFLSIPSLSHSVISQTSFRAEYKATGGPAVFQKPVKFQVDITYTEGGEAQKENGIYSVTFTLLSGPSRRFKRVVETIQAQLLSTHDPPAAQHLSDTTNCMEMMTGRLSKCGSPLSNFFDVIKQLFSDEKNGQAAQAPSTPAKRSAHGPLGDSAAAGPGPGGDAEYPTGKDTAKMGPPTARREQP
Conditions: read-out: % Enzyme Activity (relative to DMSO controls), BRSK2.

Test [4] concerns the target T4, panel of 374 wild-type kinases (Homo sapiens, UniProt Q8WTQ7).
T4 construct: purchased Reaction Biology Corporation
T4 sequence (Q8WTQ7 1-553): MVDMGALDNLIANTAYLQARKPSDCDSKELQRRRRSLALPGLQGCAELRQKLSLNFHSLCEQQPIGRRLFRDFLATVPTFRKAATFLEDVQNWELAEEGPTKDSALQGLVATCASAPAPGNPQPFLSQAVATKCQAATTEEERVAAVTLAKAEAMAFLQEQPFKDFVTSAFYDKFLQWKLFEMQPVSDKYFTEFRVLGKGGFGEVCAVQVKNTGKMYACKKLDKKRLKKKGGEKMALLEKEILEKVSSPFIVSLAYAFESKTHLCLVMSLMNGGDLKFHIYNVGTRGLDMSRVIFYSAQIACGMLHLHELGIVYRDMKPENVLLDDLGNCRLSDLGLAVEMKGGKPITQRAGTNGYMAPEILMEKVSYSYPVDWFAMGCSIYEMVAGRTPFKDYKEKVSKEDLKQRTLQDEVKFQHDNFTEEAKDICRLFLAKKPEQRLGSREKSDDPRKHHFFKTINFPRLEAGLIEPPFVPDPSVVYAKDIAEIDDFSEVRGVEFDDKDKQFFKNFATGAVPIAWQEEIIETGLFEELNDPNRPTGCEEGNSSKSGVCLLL
The following applies: for remaining activity at 5 µM: read-out: % Enzyme Activity (relative to DMSO controls), GRK7.

The target in test [5] is T5, panel of 374 wild-type kinases (Homo sapiens, UniProt Q13555).
T5 construct: purchased Reaction Biology Corporation
Conditions: read-out: % Enzyme Activity (relative to DMSO controls), CAMK2g.

For test [6], the target named is T6, panel of 374 wild-type kinases (Homo sapiens, UniProt Q13163).
T6 construct: purchased Reaction Biology Corporation
T6 sequence (Q13163 1-448): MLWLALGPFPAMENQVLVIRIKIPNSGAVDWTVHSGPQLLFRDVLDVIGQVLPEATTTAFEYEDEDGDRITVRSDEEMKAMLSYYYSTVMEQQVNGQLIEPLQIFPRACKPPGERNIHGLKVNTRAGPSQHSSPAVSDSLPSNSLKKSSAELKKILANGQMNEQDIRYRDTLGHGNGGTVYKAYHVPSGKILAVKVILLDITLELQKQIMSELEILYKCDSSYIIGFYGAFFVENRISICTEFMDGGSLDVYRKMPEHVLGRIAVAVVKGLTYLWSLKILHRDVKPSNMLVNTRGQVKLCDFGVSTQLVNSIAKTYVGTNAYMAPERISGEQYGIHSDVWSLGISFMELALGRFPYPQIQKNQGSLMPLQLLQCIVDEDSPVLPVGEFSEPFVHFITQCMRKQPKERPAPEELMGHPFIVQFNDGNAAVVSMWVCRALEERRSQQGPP
Conditions: read-out: % Enzyme Activity (relative to DMSO controls), MEK5.

Test [7] deals with T7, panel of 374 wild-type kinases (Homo sapiens, UniProt P22694).
T7 construct: purchased Reaction Biology Corporation
The following applies: read-out: % Enzyme Activity (relative to DMSO controls), kinase PKAcb.

Test [8] addresses T8, panel of 374 wild-type kinases (Homo sapiens, UniProt P49841).
T8 construct: purchased Reaction Biology Corporation
The following applies: read-out: % Enzyme Activity (relative to DMSO controls), GSK3b.

T1 sequence (Q06187 whole entry): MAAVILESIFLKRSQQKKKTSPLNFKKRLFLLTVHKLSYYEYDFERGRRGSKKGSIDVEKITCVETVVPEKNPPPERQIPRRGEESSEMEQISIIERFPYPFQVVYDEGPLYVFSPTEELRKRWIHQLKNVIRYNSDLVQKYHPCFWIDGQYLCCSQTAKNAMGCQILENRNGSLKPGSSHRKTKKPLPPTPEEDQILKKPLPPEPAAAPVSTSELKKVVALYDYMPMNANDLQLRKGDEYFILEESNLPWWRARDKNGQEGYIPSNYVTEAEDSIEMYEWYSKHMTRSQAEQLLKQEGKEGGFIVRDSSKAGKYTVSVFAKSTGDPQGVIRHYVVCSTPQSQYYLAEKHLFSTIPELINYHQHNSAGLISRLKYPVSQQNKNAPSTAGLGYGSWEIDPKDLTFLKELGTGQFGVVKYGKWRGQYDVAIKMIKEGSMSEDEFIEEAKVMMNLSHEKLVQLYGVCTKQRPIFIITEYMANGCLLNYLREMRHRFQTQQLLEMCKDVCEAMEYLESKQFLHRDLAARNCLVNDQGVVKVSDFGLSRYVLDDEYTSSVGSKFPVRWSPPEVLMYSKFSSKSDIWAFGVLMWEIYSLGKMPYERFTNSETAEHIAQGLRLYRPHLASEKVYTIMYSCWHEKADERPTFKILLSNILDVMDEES
T8 sequence (P49841 whole entry): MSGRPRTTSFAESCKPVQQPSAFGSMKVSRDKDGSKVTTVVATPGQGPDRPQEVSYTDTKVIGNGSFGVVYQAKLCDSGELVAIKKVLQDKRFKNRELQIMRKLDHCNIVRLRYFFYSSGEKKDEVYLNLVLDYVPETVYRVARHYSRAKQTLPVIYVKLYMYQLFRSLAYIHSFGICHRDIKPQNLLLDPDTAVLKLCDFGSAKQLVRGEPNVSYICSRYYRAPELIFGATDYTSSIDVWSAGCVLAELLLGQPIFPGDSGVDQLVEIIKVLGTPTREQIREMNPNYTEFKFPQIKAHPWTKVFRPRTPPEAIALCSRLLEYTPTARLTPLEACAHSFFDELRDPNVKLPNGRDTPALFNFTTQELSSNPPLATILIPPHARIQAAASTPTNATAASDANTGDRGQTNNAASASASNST
T5 sequence (Q13555 whole entry): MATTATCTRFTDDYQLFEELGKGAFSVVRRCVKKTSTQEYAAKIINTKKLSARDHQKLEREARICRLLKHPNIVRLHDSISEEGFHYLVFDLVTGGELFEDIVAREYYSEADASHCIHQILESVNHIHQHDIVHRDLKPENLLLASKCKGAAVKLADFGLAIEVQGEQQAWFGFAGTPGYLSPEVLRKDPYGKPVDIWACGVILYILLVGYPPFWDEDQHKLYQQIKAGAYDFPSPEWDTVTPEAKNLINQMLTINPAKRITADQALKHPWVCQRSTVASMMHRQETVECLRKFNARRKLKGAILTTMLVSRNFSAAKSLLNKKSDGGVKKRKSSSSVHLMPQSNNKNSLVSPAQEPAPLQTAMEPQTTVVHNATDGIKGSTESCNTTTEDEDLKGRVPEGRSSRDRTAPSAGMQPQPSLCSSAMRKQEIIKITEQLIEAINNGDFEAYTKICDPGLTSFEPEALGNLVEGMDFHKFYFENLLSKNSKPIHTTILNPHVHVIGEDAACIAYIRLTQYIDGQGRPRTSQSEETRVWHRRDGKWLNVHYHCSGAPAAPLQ

In the case of `O=C(Nc1cnn(-c2csc(C(=O)NC3COC3)c2)c1)Nc1ccccc1Cl` [Compound 17, 4-(4-(3-(2-chlorophenyl)ureido)-1H-pyrazol-1-yl)-N-(oxetan-3-yl)thiophene-2-carboxamide], the remaining activity at 5 µM in test [1] is 92.6%; in test [2], 102%; in test [3], 102%; in test [4], 96.4%; in test [5] it was 96.4%; in test [6], 98.2%. The remaining activity at 5 µM was found to be 99% in test [7] and 95% in test [8].

Consider `O=C(Nc1cnn(-c2csc(C(=O)NC3COC3)c2)c1)Nc1c(F)cccc1Cl` [Compound 25, 4-(4-(3-(2-chloro-6-fluorophenyl)ureido)-1H-pyrazol-1-yl)-N-(oxetan-3-yl)thiophene-2-carboxamide], for which the remaining activity at 5 µM in test [1] stood at 89.3%; in test [2], 104%; in test [3] it was 100%; in test [4], 94%; in test [5], 90.1%; in test [6], 103%. Also, the remaining activity at 5 µM was found to be 98.3% in test [7] and 95.7% in test [8].

With `Cc1sc(C(=O)NC2COC2)cc1-n1cc(NC(=O)Nc2c(F)cccc2Cl)cn1` [Compound 27, 4-(4-(3-(2-chloro-6-fluorophenyl)ureido)-1H-pyrazol-1-yl)-5-methyl-N-(oxetan-3-yl)thiophene-2-carboxamide], the remaining activity at 10 µM in test [1] (10 uM) was determined as 87.6%; in test [2] (10 uM) it was 103%; in test [3] (10 uM), 102%; in test [4] (GRK7, 10 uM, read-out: % Enzyme Activity (relative to DMSO controls)) it was 98.3%; in test [5] (10 uM), 102%; in test [6] (10 uM), 96.8%. Besides, the remaining activity at 10 µM in test [7] (10 uM) amounted to 104%; in test [8] (10 uM), 94.9%.
